In ChEMBL document CHEMBL4308897, “Antileishmanial activity and cytotoxicity of ent-beyerene diterpenoids” (Bioorg Med Chem, 2019):

Assays:
[1] = Toxicity in golden hamster infected with Leishmania (Viannia) braziliensis HMOM/COL/88/UA301-EGFP assessed as effect on serum creatinine level at 200 ug administered intralesionally twice per week for 4 weeks measured day 8 post last treatment; parameters: species or system Mesocricetus auratus; settings: in vivo, other, 672 h
[2] = Toxicity in golden hamster infected with Leishmania (Viannia) braziliensis HMOM/COL/88/UA301-EGFP assessed as effect on serum alanine aminotransferase level at 200 ug administered intralesionally twice per week for 4 weeks measured day 8 post last treatment; parameters: species or system Mesocricetus auratus; settings: in vivo, other, 672 h
[3] = Renal toxicity in golden hamster infected with Leishmania (Viannia) braziliensis HMOM/COL/88/UA301-EGFP assessed as turbid degeneration at 200 ug administered intralesionally twice per week for 4 weeks measured 90 days post last dose by histopathological analysis; parameters: species or system Mesocricetus auratus; settings: in vivo, other, 2160 h
[4] = Renal toxicity in golden hamster infected with Leishmania (Viannia) braziliensis HMOM/COL/88/UA301-EGFP assessed as infiltration of plasma cells at 200 ug administered intralesionally twice per week for 4 weeks measured 90 days post last dose by histopathological analysis; parameters: species or system Mesocricetus auratus; settings: in vivo, other, 2160 h
[5] = Hepatotoxicity in golden hamster infected with Leishmania (Viannia) braziliensis HMOM/COL/88/UA301-EGFP assessed as infiltration of macrophages at 200 ug administered intralesionally twice per week for 4 weeks measured 90 days post last dose by histopathological analysis; type: toxicity, Mesocricetus auratus; settings: in vivo, other, 2160 h
[6] = Hepatotoxicity in golden hamster infected with Leishmania (Viannia) braziliensis HMOM/COL/88/UA301-EGFP assessed as hemosiderin pigmentation at 200 ug administered intralesionally twice per week for 4 weeks measured 90 days post last dose by histopathological analysis; type: toxicity, Mesocricetus auratus; settings: in vivo, other, 2160 h
[7] = Hepatotoxicity in golden hamster infected with Leishmania (Viannia) braziliensis HMOM/COL/88/UA301-EGFP assessed as congestion at 200 ug administered intralesionally twice per week for 4 weeks measured 90 days post last dose by histopathological analysis; type: toxicity, Mesocricetus auratus; settings: in vivo, other, 2160 h
[8] = Hepatotoxicity in golden hamster infected with Leishmania (Viannia) braziliensis HMOM/COL/88/UA301-EGFP assessed as vacuolar degeneration at 200 ug administered intralesionally twice per week for 4 weeks measured 90 days post last dose by histopathological analysis; type: toxicity, Mesocricetus auratus; settings: in vivo, other, 2160 h
[9] = Hepatotoxicity in golden hamster infected with Leishmania (Viannia) braziliensis HMOM/COL/88/UA301-EGFP assessed as infiltration of lymphocytes at 200 ug administered intralesionally twice per week for 4 weeks measured 90 days post last dose by histopathological analysis; type: toxicity, Mesocricetus auratus; settings: in vivo, other, 2160 h
[10] = Renal toxicity in golden hamster infected with Leishmania (Viannia) braziliensis HMOM/COL/88/UA301-EGFP assessed as vacuolar degeneration at 200 ug administered intralesionally twice per week for 4 weeks measured 90 days post last dose by histopathological analysis; parameters: species or system Mesocricetus auratus; settings: in vivo, other, 2160 h
[11] = Toxicity in golden hamster infected with Leishmania (Viannia) braziliensis HMOM/COL/88/UA301-EGFP assessed as effect on serum BUN level at 200 ug administered intralesionally twice per week for 4 weeks measured day 8 post last treatment; parameters: species or system Mesocricetus auratus; settings: in vivo, other, 672 h
[12] = Hepatotoxicity in golden hamster infected with Leishmania (Viannia) braziliensis HMOM/COL/88/UA301-EGFP assessed as hyperplasia at 200 ug administered intralesionally twice per week for 4 weeks measured 90 days post last dose by histopathological analysis; type: toxicity, Mesocricetus auratus; settings: in vivo, other, 2160 h
[13] = Renal toxicity in golden hamster infected with Leishmania (Viannia) braziliensis HMOM/COL/88/UA301-EGFP assessed as edema at 200 ug administered intralesionally twice per week for 4 weeks measured 90 days post last dose by histopathological analysis; parameters: species or system Mesocricetus auratus; settings: in vivo, other, 2160 h
[14] = Renal toxicity in golden hamster infected with Leishmania (Viannia) braziliensis HMOM/COL/88/UA301-EGFP assessed as fibrosis at 200 ug administered intralesionally twice per week for 4 weeks measured 90 days post last dose by histopathological analysis; parameters: species or system Mesocricetus auratus; settings: in vivo, other, 2160 h
[15] = Toxicity in golden hamster infected with Leishmania (Viannia) braziliensis HMOM/COL/88/UA301-EGFP assessed as change in body weight at 200 ug administered intralesionally twice per week for 4 weeks measured up to 90 days post last dose; parameters: species or system Mesocricetus auratus; settings: in vivo, other
[16] = Hepatotoxicity in golden hamster infected with Leishmania (Viannia) braziliensis HMOM/COL/88/UA301-EGFP assessed as external stress condition induced changes at 200 ug administered intralesionally twice per week for 4 weeks measured 90 days post last dose by histopathological analysis; type: toxicity, Mesocricetus auratus; settings: in vivo, other, 2160 h
[17] = Renal toxicity in golden hamster infected with Leishmania (Viannia) braziliensis HMOM/COL/88/UA301-EGFP assessed as infiltration of lymphocytes at 200 ug administered intralesionally twice per week for 4 weeks measured 90 days post last dose by histopathological analysis; parameters: species or system Mesocricetus auratus; settings: in vivo, other, 2160 h

MEGLUMINE ANTIMONATE
Activity [1]: Non-Toxic | Activity [2]: Non-Toxic | Activity [3]: Toxic | Activity [4]: Toxic | Activity [5]: Toxic | Activity [6]: Toxic | Activity [7]: Toxic | Activity [8]: Toxic | Activity [9]: Toxic | Activity [10]: Toxic | Activity [11]: Non-Toxic | Activity [12]: Toxic | Activity [13]: Toxic | Activity [14]: Toxic | Activity [15]: Toxic | Activity [16]: Toxic | Activity [17]: Toxic
